Reference: PubChem BioAssay (NCI)
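Following 48 hours of exposure in 96-well plates, responses at five concentrations were used to interpolate endpoints linearly. TGI denotes the concentration required for complete inhibition of growth.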

Assays:
Assay in all cases: NCI anticancer screen, dose series, 48 h
[1] = tested on: A549 NSCLC
[2] = tested on: PC-3 prostate
[3] = tested on: HCT-15 colon
[4] = tested on: SK-MEL-2 melanoma
[5] = tested on: HOP-92 NSCLC
[6] = tested on: ACHN renal
[7] = tested on: SK-MEL-5 melanoma
[8] = tested on: OVCAR-4 ovarian
[9] = tested on: SR leukemia
[10] = tested on: NCI-H522 lung

Row | Structure (SMILES) | TGI [1] [µM] | TGI [2] [µM] | TGI [3] [µM] | TGI [4] [µM] | TGI [5] [µM] | TGI [6] [µM] | TGI [7] [µM] | TGI [8] [µM] | TGI [9] [µM] | TGI [10] [µM]
1 | CC[C@@]1(O)C(=O)OCc2c1cc1n(c2=O)Cc2c-1nc1ccccc1c2/C=N\NC(=O)C(N)CCSC (stereo not given in full) | 3.19 | > 100 | > 90.3 | 4.2 | 2.98 | < 0.0506 | 0.191 | 3.24 | < 0.0397 | 2.02
2 | O=C(c1ccco1)N(C(=O)N1CCN(c2ccccc2)CC1)S(=O)(=O)c1ccccc1 | > 100 | > 100 | > 100 | 37.2 | 73.6 | 62.7 | 68.3 | > 100 | 51.4 | 41.2
3 | COC(=O)C1CCC(=O)N1C(c1ccc2c(c1)OCO2)c1cc(OC)c(OC)c(OC)c1 (stereo not given) | > 100 | > 100 | > 100 | > 100 | > 100 | > 100 | > 100 | > 100 | > 100 | 24.4
4 | COc1ccc(C2=NOC(N)(c3ccc(OC)cc3)C2)cc1 (stereo not given) | > 100 | > 100 | > 100 | > 100 | > 100 | > 100 | > 100 | > 100 | > 100 | > 100
5 | N#C/C(C(=S)NCc1ccccc1)=C(/N)N1CCCC1 | > 100 | > 100 | > 100 | > 100 | > 100 | > 100 | > 100 | > 100 | > 100 | > 100
6 | COC(=O)C(Cc1c[nH]c2ccccc12)N=C1Nc2ccncc2S(=O)(=O)N1c1cccc(OC(C)C)c1 (stereo not given) | > 100 | > 100 | > 100 | > 100 | 43.3 | > 100 | > 100 | > 100 | 79.7 | > 100
7 | N#Cc1nc(C#N)n(S(=O)(=O)c2ccccc2)c1NS(=O)(=O)c1ccccc1 | > 100 | > 100 | > 100 | > 31.6 | > 100 | > 100 | > 100 | > 100 | > 100 | > 100
8 | COc1ccc(CNc2cc(=O)n(C)c(=O)[nH]2)cc1 | > 100 | > 100 | > 100 | > 100 | > 100 | > 100 | > 100 | > 100 | > 100 | > 100
9 | c1ccc(CC2COC(c3cccs3)=N2)cc1 (stereo not given) | > 100 | > 100 | > 100 | > 100 | > 100 | > 100 | > 100 | > 100 | > 100 | > 100
10 | CN=C(Nc1cccc(C(F)(F)F)c1)SCc1ccc(N=C=S)cc1 | 37.5 | 29.4 | 20.8 | 25.6 | 30.5 | 28.7 | 30.1 | 26.8 | 40.4 | 22.4
11 | COc1ccc2c3c1O[C@H](c1ccc(O)cc1)[C@H]3[N+](C)(C)CC2 | > 100 | > 100 | > 100 | > 100 | > 100 | > 100 | > 100 | > 100 | > 100 | > 100
12 | CN(C)CCc1c2c(nc3ccccc13)C(=O)c1cccnc1C2=O | 3.2 | 3.02 | 0.927 | 4.21 | 8.76 | 1.39 | 0.672 | 2.79 | 0.144 | 0.654
13 | CCOC(=O)Cn1nnc2ccc(Nc3nc4ccccc4nc3-c3ccccc3)cc21 | > 100 | > 100 | > 100 | > 100 | > 100 | > 100 | > 100 | > 100 | > 100 | > 100
14 | OC(c1cccnc1Cl)c1nc2ccccc2c2ccnc(Cl)c12 (stereo not given) | > 100 | 69.1 | > 100 | > 100 | > 100 | > 100 | > 100 | > 100 | 17.7 | 5.92
15 | CC1(C)CC(=O)c2c(nc3c4c([nH]c(-c5ccc(Br)cc5)c24)CC(C)(C)C3)C1 | > 100 | > 100 | > 100 | > 100 | > 100 | > 100 | > 100 | > 100 | 59.1 | > 100
16 | Cc1cnc2c(c1C)C(=O)c1ccccc1C2=O | > 100 | > 100 | 88.1 | > 100 | > 100 | > 100 | 28.9 | 59.3 | > 100 | > 100
17 | Cc1cc2c(cc1C)[n+](=O)c(C(=O)c1ccccc1)c(C(F)(F)F)n2[O-] | 3.88 | 9.19 | > 34.4 | 19.7 | 1.46 | 8.29 | 3.75 | 1.71 | 2.9 | 12.9
18 | C=CCOc1ccc(C2C(C(=O)OC)C(=O)CC(O)(c3ccccc3)C2C(=O)OC)cc1OC (stereo not given) | > 100 | > 100 | > 100 | > 100 | 38.5 | > 100 | > 100 | 69.5 | > 100 | 50.5
19 | CCCc1[nH]c2ccccc2c1-c1c(CCC)[nH]c2ccccc12 | > 75.4 | 23.4 | 23.5 | 35.7 | 62.4 | 31.7 | 23.7 | > 68.2 | > 100 | 34.2
20 | CC(C)(CCC(C)(C)N1OC1c1ccccc1)N1OC1c1ccccc1 (stereo not given) | > 100 | > 100 | > 100 | > 100 | > 100 | 35.8 | 37.8 | > 100 | 40.3 | 22.2
21 | O=c1[nH]nc(-c2ccccc2)n1O | > 100 | > 100 | > 100 | > 100 | > 100 | > 100 | > 100 | > 100 | > 100 | > 100
22 | CC(C)/C(Cl)=N/OC(=O)Nc1ccc(Cl)c(Cl)c1 | 43.4 | 33.1 | 5.59 | 34.1 | 3.2 | 3.72 | 27.3 | 22.5 | > 100 | 3.25
23 | Nc1ncnc2c1ncn2[C@@H]1O[C@H](COC(c2ccccc2)(c2ccccc2)c2ccccc2)[C@@H](OC(=S)Oc2ccccc2)[C@@H]1F | 43.7 | 15.2 | 12.5 | 19.4 | 28.6 | 22.6 | 16.8 | 57.9 | 8.24 | 5.32
24 | Clc1ccc2oc(CCc3ccccc3)nc2c1 | > 100 | > 100 | > 100 | > 100 | > 100 | > 100 | 55.4 | > 100 | > 100 | > 100
25 | O=[N+]([O-])c1ccc(C(O)(C#CCN2CCCC2)c2ccccc2)cc1 (stereo not given) | > 100 | > 100 | > 100 | 75.5 | 51.7 | > 100 | 42.6 | > 100 | 44.2 | 54.9
